According to US4310660A, “Lincomycin compounds” (The Upjohn Company, priority 1980, dated 1982):
Where a name gives a salt, the structure may show the parent alone. Read-outs that look alike come from different tables or passages of the source.

Assays:
Staphylococcus aureus = assay: MIC vs. aerobic bacteria, microplate broth-dilution (BHI); assay type: cell-based; details: Staphylococcus aureus, read-out: Minimal Inhibitory Concentration (MIC)
Diplococcus pneumoniae = assay: as above; assay type: cell-based; details: Streptococcus pneumoniae, read-out: Minimal Inhibitory Concentration (MIC)
Description: (§1) The Minimal Inhibitory Concentration (MIC's) of both compounds Vs. aerobic bacteria is determined using a standard microplate broth-dilution method. Brain Heart Infusion (BHI-Difco) broth medium is used, and the plates are incubated at 37° C. for 20 hrs.

Escherichia coli = assay: as above; assay type: cell-based; details: UC45, UC 45, read-out: Minimal Inhibitory Concentration (MIC)
Description: as §1

Klebsiella pneumoniae = assay: as above; assay type: cell-based; details: Klebsiella pneumoniae, UC58, UC 58; read-out: Minimal Inhibitory Concentration (MIC)
Description: as §1

Proteus vulgaris = assay: as above; assay type: cell-based; details: Proteus vulgaris, UC93, UC 93; read-out: Minimal Inhibitory Concentration (MIC)
Description: as §1

Pseudomonas aeruginosa = assay: as above; assay type: cell-based; details: UC95, UC 95, read-out: Minimal Inhibitory Concentration (MIC)
Description: as §1

[1] = tested on: Salmonella schottmuelleri; assay: as above; assay type: cell-based; details: Salmonella, UC126; UC 126; read-out: Minimal Inhibitory Concentration (MIC)
Description: as §1

[2] = tested on: Staphylococcus epidermidis; assay: as above; assay type: cell-based
Description: as §1

Streptococcus faecalis = assay: as above; assay type: cell-based; details: Enterococcus faecalis, UC694, UC 694; read-out: Minimal Inhibitory Concentration (MIC)
Description: as §1

Streptococcus pyogenes = assay: as above; assay type: cell-based; details: UC152, UC 152, read-out: Minimal Inhibitory Concentration (MIC)
Description: as §1

Streptococcus viridans = assay: as above; assay type: cell-based
Description: as §1

[3] = tested on: Bacteroides thetaiotaomicon; assay: MIC vs. anaerobic bacteria, agar dilution; assay type: cell-based; details: UC6512, UC 6512, read-out: Minimal Inhibitory Concentration (MIC)
Bacteroides distasonis = assay: MIC vs. anaerobic bacteria, agar dilution; assay type: cell-based; details: Parabacteroides distasonis, UC6518, UC 6518, read-out: Minimal Inhibitory Concentration (MIC)
[4] = tested on: Bacteroides melaninogenicus; assay: MIC vs. anaerobic bacteria, agar dilution; assay type: cell-based; details: UC6326, UC 6326, read-out: Minimal Inhibitory Concentration (MIC)
Clostridium tertium = assay: MIC vs. anaerobic bacteria, agar dilution; assay type: cell-based; details: UC6508, UC 6508, read-out: Minimal Inhibitory Concentration (MIC)
Clostridium cadaveris = assay: MIC vs. anaerobic bacteria, agar dilution; assay type: cell-based; details: UC6510, UC 6510, read-out: Minimal Inhibitory Concentration (MIC)
Clostridium difficile = assay: MIC vs. anaerobic bacteria, agar dilution; assay type: cell-based; details: Clostridioides difficile
Propionibacterium acnes = assay: MIC vs. anaerobic bacteria, agar dilution; assay type: cell-based; details: Cutibacterium acnes
Eubacterium lentum = assay: MIC vs. anaerobic bacteria, agar dilution; assay type: cell-based; details: Eggerthella lenta, UC6522, UC 6522, read-out: Minimal Inhibitory Concentration (MIC)
Fusobacterium nucleatum = assay: MIC vs. anaerobic bacteria, agar dilution; assay type: cell-based
[5] = tested on: Peptococcus asaccharolyticus; assay: MIC vs. anaerobic bacteria, agar dilution; assay type: cell-based; details: Peptoniphilus asaccharolyticus, UC6214, UC 6214, read-out: Minimal Inhibitory Concentration (MIC)
Peptococcus aerogenes = assay: MIC vs. anaerobic bacteria, agar dilution; assay type: cell-based; details: Peptoniphilus asaccharolyticus, UC6319, UC 6319, read-out: Minimal Inhibitory Concentration (MIC)
K. pneumoniae = assay: Mouse Protection Test; assay type: in vivo; details: Klebsiella pneumoniae, 168 h; route not given; once per day for 4 days; read-out: CD50 (median protective dose)
From the text: (§2) Immediately before use, the suspensions were thawed quickly and properly diluted. Infection was via the intrapertioneal route.
(§3) Treatment of the infected groups was begun immediately and continued once per day for 4 days (first 24 hr period=1). Groups of untreated mice served as virulence controls for the culture.
(§4) Seven days after the treatment regimen was begun the surviving animals were sacrificed and the median protective dose of the antibiotic calculated on the basis of mortality rates in the treatment groups. The median protective dose and its 95% confidence interval were calculated according to the method of Spearmen & Karber as programmed on a 360 digital computer.

S. aureus = assay: Mouse Protection Test; assay type: in vivo; details: Staphylococcus aureus
From the text: as §2, §3, §4

S. hemolyticus = assay: Mouse Protection Test; assay type: in vivo; details: for ED50: 168 h
From the text: as §2, §3, §4

Work on `CC[C@@H]1CCN[C@H](C(=O)N[C@@H]([C@H]2O[C@H](SC)[C@H](O)[C@@H](O)[C@H]2O)[C@H](C)Cl)C1` [U-57,930E, 4-Cis-ethyl-1-pipecolic acid amide of 7-Cl-MTL.HCl] yielded an MIC (Staphylococcus aureus; UC76, S. aureus UC 76) of 0.1 µg/mL, an MIC (Staphylococcus aureus; UC570, S. aureus UC 570) of 0.39 µg/mL and an MIC (Staphylococcus aureus; UC571, S. aureus UC 571) of 0.78 µg/mL. The MIC (Staphylococcus aureus; UC746, S. aureus UC 746) was 0.05 µg/mL, the MIC (Staphylococcus aureus; UC6675, S. aureus UC 6675) was 0.39 µg/mL and the MIC (Staphylococcus aureus; UC6685, S. aureus UC 6685) was > 25 µg/mL. The MIC (Staphylococcus aureus; UC6686, S. aureus UC 6686) was 0.2 µg/mL, the MIC (Staphylococcus aureus; UC6687, S. aureus UC 6687) was 0.2 µg/mL and the MIC (Staphylococcus aureus; UC6688, S. aureus UC 6688) was > 25 µg/mL. It also gave an MIC (Staphylococcus aureus; UC6689, S. aureus UC 6689) of 0.78 µg/mL, an MIC (Staphylococcus aureus; UC6690, S. aureus UC 6690) of 0.2 µg/mL and an MIC (Staphylococcus aureus; UC6691, S. aureus UC 6691) of 0.2 µg/mL. For the same compound, the MIC (Staphylococcus aureus; UC6692, S. aureus UC 6692) was > 25 µg/mL, the MIC (Staphylococcus aureus; UC6693, S. aureus UC 6693) was 0.78 µg/mL and the MIC (Staphylococcus aureus; UC6694, S. aureus UC 6694) was > 25 µg/mL. The MIC (Staphylococcus aureus; UC6695, S. aureus UC 6695) was 0.39 µg/mL, the MIC (Staphylococcus aureus; UC6696, S. aureus UC 6696) was 0.39 µg/mL and the MIC (Diplococcus pneumoniae; UC41, Diplococcus pneumoniae I, UC 41) was ≤ 0.012 µg/mL. For the same compound, the MIC (Diplococcus pneumoniae; UC3213, Diplococcus pneumoniae II, UC 3213) was ≤ 0.012 µg/mL, the MIC (Escherichia coli) was > 50 µg/mL and the MIC (Klebsiella pneumoniae) was > 50 µg/mL. The MIC (Proteus vulgaris) was > 50 µg/mL, the MIC (Pseudomonas aeruginosa) was > 50 µg/mL and the MIC [1] was > 50 µg/mL. It also gave an MIC ([2]; UC719, UC 719, read-out: Minimal Inhibitory Concentration (MIC)) of 0.2 µg/mL, an MIC ([2]; UC3389, UC 3389, read-out: Minimal Inhibitory Concentration (MIC)) of 0.2 µg/mL and an MIC (Streptococcus faecalis) of 6.25 µg/mL. For the same compound, the MIC (Streptococcus pyogenes) was ≤ 0.012 µg/mL, the MIC (Streptococcus viridans; UC153, UC 153, read-out: Minimal Inhibitory Concentration (MIC)) was 0.05 µg/mL and the MIC (Streptococcus viridans; UC871, UC 871, read-out: Minimal Inhibitory Concentration (MIC)) was ≤ 0.012 µg/mL. The MIC [3] was 0.5 µg/mL, the MIC (Bacteroides distasonis) was ≤ 0.03 µg/mL and the MIC [4] was 0.06 µg/mL. For the same compound, the MIC (Clostridium tertium) was 7.8 µg/mL, the MIC (Clostridium cadaveris) was 0.06 µg/mL and the MIC (Clostridium difficile; UC6834, UC 6834, read-out: Minimal Inhibitory Concentration (MIC)) was 3.9 µg/mL. The MIC (Clostridium difficile; UC6857, UC 6857, read-out: Minimal Inhibitory Concentration (MIC)) was 125 µg/mL, the MIC (Clostridium difficile; UC6858, UC 6858, read-out: Minimal Inhibitory Concentration (MIC)) was 3.9 µg/mL and the MIC (Clostridium difficile; UC6860, UC 6860, read-out: Minimal Inhibitory Concentration (MIC)) was 500 µg/mL. The MIC (Clostridium difficile; UC6861, UC 6861, read-out: Minimal Inhibitory Concentration (MIC)) was 2 µg/mL, the MIC (Propionibacterium acnes; UC6564, UC 6564, read-out: Minimal Inhibitory Concentration (MIC)) was 0.12 µg/mL and the MIC (Propionibacterium acnes; UC6575, UC 6575, read-out: Minimal Inhibitory Concentration (MIC)) was 0.06 µg/mL. It also gave an MIC (Eubacterium lentum) of 1 µg/mL, an MIC (Fusobacterium nucleatum; UC6324, UC 6324, read-out: Minimal Inhibitory Concentration (MIC)) of 0.06 µg/mL and an MIC (Fusobacterium nucleatum; UC6516, UC 6516, read-out: Minimal Inhibitory Concentration (MIC)) of 0.12 µg/mL. For the same compound, the MIC [5] was 0.25 µg/mL, the MIC (Peptococcus aerogenes) was 0.06 µg/mL and the ED50 (K. pneumoniae) was > 320 mg/kg. The ED50 (S. aureus; 168 h, oral, once per day for 4 days, 95% confidence interval, read-out: CD50 (median protective dose)) was 1 to 5 mg/kg, the ED50 (S. aureus; UC76, 168 h, strain UC 76, oral, read-out: Median Protective Dose (CD50)) was 8.12 mg/kg and the ED50 (S. aureus; UC76, sc, 168 h, strain UC 76, subcutaneous, read-out: Median Protective Dose (CD50)) was 1.07 mg/kg. For the same compound, the ED50 (S. aureus; sc, 168 h, read-out: CD50 (median protective dose)) was < 5 mg/kg, the ED50 (S. hemolyticus; oral, once per day for 4 days, 95% confidence interval, read-out: CD50 (median protective dose)) was 2.9 mg/kg and the ED50 (S. hemolyticus; strain C203, oral, read-out: Median Protective Dose (CD50)) was 3.79 mg/kg. For the same compound, the “Ratio (clindamycin / U-57930A CD50)” value (S. hemolyticus; oral) was 4.2, the ED50 (S. hemolyticus; sc, strain C203, subcutaneous, read-out: Median Protective Dose (CD50)) was 0.38 mg/kg and the ED50 (S. hemolyticus; sc, subcut., once per day for 4 days, 95% confidence interval, two experiments listed, read-out: CD50 (median protective dose)) was 0.25 mg/kg.
